Results reported in patent US20110143948A1, “MOLECULAR SIGNATURES AND BIOMARKERS ASSOCIATED WITH MELANOMA AND METHODS OF USE THEREOF” (priority 2008, published 2011).

Test system: ncRNAs (SEQ ID NO 28-89)
Test: ncRNA arrays of melanocytes, keratinocytes, normal skin, melanoma cell lines and patient samples
Design: species or system human
Conditions: for ncRNA array expression, patient 2: melanoma patient 2 sample compared to normal skin; for ncRNA array expression, patient 3: melanoma patient 3 sample compared to normal skin; for ncRNA array expression, patient 4: melanoma patient 4 sample compared to normal skin; for ncRNA array expression, patient 5: melanoma patient 5 sample compared to normal skin; for ncRNA array expression, patient 6: melanoma patient 6 sample compared to normal skin; for ncRNA array expression, patient 7: melanoma patient 7 sample compared to normal skin; for ncRNA array expression, patient 8: melanoma patient 8 sample compared to normal skin; for ncRNA array expression, patient 9: melanoma patient 9 sample compared to normal skin; for ncRNA array expression, patient 10: melanoma patient 10 sample compared to normal skin; for ncRNA array expression, patient 19: melanoma patient 19 sample compared to normal skin; for ncRNA array expression, patient 20: melanoma patient 20 sample compared to normal skin; for ncRNA array expression, patient 21: melanoma patient 21 sample compared to normal skin; for ncRNA array expression, patient 22: melanoma patient 22 sample compared to normal skin; for ncRNA array expression, patient 23: melanoma patient 23 sample compared to normal skin; for ncRNA array expression, patient 24: melanoma patient 24 sample compared to normal skin; for ncRNA array expression, patient 25: melanoma patient 25 sample compared to normal skin; for ncRNA array expression, patient 26: melanoma patient 26 sample compared to normal skin; for ncRNA array expression, patient 27: melanoma patient 27 sample compared to normal skin; for ncRNA array expression, patient 28: melanoma patient 28 sample compared to normal skin; for ncRNA array expression, patient 29: melanoma patient 29 sample compared to normal skin; for ncRNA array expression, patient 30: melanoma patient 30 sample compared to normal skin
How it was run: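 Total RNA from melanocytes, keratinocytes, normal human skin, melanoma cell lines and melanoma patient samples was profiled on an array of >10,000 putative (>200 nt) human and mouse ncRNAs plus RefSeq mRNA probes. Expression was compared with melanocytes or normal skin, keratinocyte signatures were subtracted, and hits were validated by qRT-PCR and Northern blot.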

Row | Substance | ncRNA array expression, patient 2 | ncRNA array expression, patient 3 | ncRNA array expression, patient 4 | ncRNA array expression, patient 5 | ncRNA array expression, patient 6 | ncRNA array expression, patient 7 | ncRNA array expression, patient 8 | ncRNA array expression, patient 9 | ncRNA array expression, patient 10 | ncRNA array expression, patient 19 | ncRNA array expression, patient 20 | ncRNA array expression, patient 21 | ncRNA array expression, patient 22 | ncRNA array expression, patient 23 | ncRNA array expression, patient 24 | ncRNA array expression, patient 25 | ncRNA array expression, patient 26 | ncRNA array expression, patient 27 | ncRNA array expression, patient 28 | ncRNA array expression, patient 29 | further results
1 | SEQ ID NO 63 (CTCACACGCACCCTTTCACTGTTTCTTAGTAATTTGTTTGTCTACAGACACAGACGGGAA; listed as DNA, chemistry not given here; listed as Homo sapiens) | −1.694 | −1.565 | −1.396 | −1.315 | −0.5921 | −1.305 | −1.26 | −1.429 | −1.417 | −1.154 | −1.232 | −1.397 | −0.3562 | −0.04699 | −1.093 | −2.099 | −2.008 | −1.525 | −1.601 | −1.862 | ncRNA array expression, patient 30: 1.622
2 | SEQ ID NO 64 (TTGCCTAGGAACAAAGAAGGCTTGTGAGGAGATCAAGGAACTTACATGAAATTGTAGGAA; listed as DNA, chemistry not given here; listed as Homo sapiens) | 2.496 | 1.673 | 4.824 | 1.546 | 1.8 | 1.389 | 2.2638 | 1.339 | 2.481 | 0.2184 | 2.311 | 2.601 | 1.302 | 0.9911 | 2.424 | 2.502 | 2.729 | 2.69 | 2.932 | 1.473 | ncRNA array expression, patient 30: −2.097
3 | SEQ ID NO 65 (CACCGTTTTACTTTTTGTGGGGAGGGGAAGCAGTATCAAAATTTCTTCGGGCGCCAGAAC; listed as DNA, chemistry not given here; listed as Homo sapiens) | −1.177 | −1.344 | −1.215 | −1.301 | −1.643 | −1.264 | −1.391 | −1.267 | −0.3046 | −0.6567 | −1.283 | −1.289 | −1.03 | −1.597 | −1.241 | −1.384 | −1.415 | −1.388 | −1.421 | −1.2518 | ncRNA array expression, patient 30: 0.5803
4 | SEQ ID NO 66 (TCCTTTTTATCTTGCACTCAGATGGTATTTTTAGAGATGTTTCTTCAATCAAAACAAGAT; listed as DNA, chemistry not given here; listed as Homo sapiens) | 2.553 | 2.044 | 2.799 | 1.983 | 2.127 | 2.319 | 2.869 | 1.498 | 1.587 | 0.7228 | 2.462 | 2.263 | 1.15 | 1.37 | 1.434 | 2.534 | 2.984 | 2.334 | 2.749 | 3.271 | ncRNA array expression, patient 30: −2.558
5 | SEQ ID NO 67 (TTCCCTATTCCATCCTTTGATGGGTGGCCTGTTACACGTTTGGAAATAAAAACAAGTGGG; listed as DNA, chemistry not given here; listed as Homo sapiens) | 2.053 | 1.721 | 0.6532 | 4.146 | 1.481 | 2.486 | 1.375 | 1.111 | 3.887 | 0.7069 | 1.071 | 3.856 | 1.186 | 2.369 | 1.045 | 0.3622 | 0.8179 | 1.392 | 6.659 | 2.096 | ncRNA array expression, patient 30: −1.191
6 | SEQ ID NO 68 (CAAAAAGAAATCTTGTTTACTTGTAAAAATATAGACTACCTCCTACTTGCCACCGTTAAG; listed as DNA, chemistry not given here; listed as Homo sapiens) | −1.029 | −0.899 | −1.233 | −1.828 | −0.6441 | −2.078 | −0.8097 | −1.121 | −1.445 | −0.5985 | −1.379 | −1.385 | −0.8953 | −0.7105 | −1.38 | −1.607 | −1.329 | −1.5151 | −1.556 | −1.309 | ncRNA array expression, patient 30: −0.1058
7 | SEQ ID NO 69 (AGAGTTCGCACTGGGAAGAGTTAAAAAATAAACATTTACAAGGACGAGGAAAGCGGCCCC; listed as DNA, chemistry not given here; listed as Homo sapiens) | −1.697 | −1.8068 | −1.369 | −1.797 | −0.5526 | −1.8141 | −1.777 | −1.618 | −1.696 | −0.9749 | −1.422 | −1.5966 | −0.8782 | −0.2153 | −1.796 | −1.178 | −1.015 | −0.7594 | −1.693 | −1.645 | ncRNA array expression, patient 30: 0.8457
8 | SEQ ID NO 70 (AGTTATAGAGGAGGCTCAGGAGGATCTGGGGAAACGGGACCAGAGGGTAAGATGGGTTAT; listed as DNA, chemistry not given here; listed as Homo sapiens) | −1.553 | −1.673 | −1.217 | −1.521 | −1.483 | −1.751 | −2.182 | −1.366 | −0.6931 | −1.792 | −1.615 | −1.1 | −1.351 | −0.7876 | −1.593 | −1.473 | −1.495 | −1.848 | −1.549 | −1.625 | ncRNA array expression, patient 30: −0.6666
